According to patent US20170333522A1, “EXPRESSION AND FUNCTION OF GPR64/ADGRG2 IN ENDOCRINE SYSTEMS AND METHODS TO TARGET IT THERAPEUTICALLY” (priority 2016, published 2017):

Tests used:
HEK-CaSR cells = assay: cAMP accumulation assay in HEK-CaSR cells; assay type: cell-based, human; conditions: activation of CaSR by 3 mM Ca^2+, forskolin-stimulated cells
[1] = test system: tumor cells from tertiary hyperparathyroidism; assay: PTH secretion from isolated tumor cells of tertiary hyperparathyroidism glands; assay type: cell-based, human
Description: FIG. 14A. Tertiary hyperparathyroidism following kidney transplantation. […] Isolated tumor cells from tertiary hyperparathyroidism gland A were stimulated with calcium (CaSR agonist) and P-15 peptide (GPR64 agonist) in vitro and PTH secretion was measured.
FIG. 14B. Tertiary hyperparathyroidism following kidney transplantation. […] Isolated tumor cells from tertiary hyperparathyroidism gland C were stimulated with calcium (CaSR agonist) and P-15 peptide (GPR64 agonist) in vitro and PTH secretion was measured. Cells express very high levels of GPR64 and are unresponsive to calcium-mediated suppression of PTH secretion.

[2] = test system: human parathyroid adenoma cells; assay: PTH secretion from freshly dispersed human parathyroid adenoma cells (intact PTH ELISA); assay type: cell-based; conditions: 30 min
Description: Dispersed primary human parathyroid cells were rested for 1 hr at 37° C. in keratinocyte-SFM media (Thermo Fisher Scientific#37010-022) supplemented with the manufacturer's provided media supplements, antibiotics and 1.25 mM Ca^2+. Cells were then centrifuged and transferred to KSFM media with various concentrations of Ca^2+, P-15 peptide, forskolin and volumetric equivalent of DMSO for 30 min at 37° C. Supernatants were collected by centrifugation at 10,000 rpm, 5 min at 4° C. and were stored in −80 for determination of intact PTH.
Human intact PTH (1-84) in cell supernatants was measured in a colorimetric ELISA assay (Immutopics International #60-3000).

[3] = test system: P-15-induced CRE induction; assay: P-15-induced CRE induction in GPR64-transfected HEK cells after preincubation with kinase inhibitors; assay type: cell-based, human; conditions: 1 hr preincubation (H-89 20 μM, U0126 10 μM) before 100 μM P-15 for 5 hrs
Description: FIG. 7. HEK cells were transfected with pCRE-Luc and GPR64 and were preincubated with DMSO (vehicle), H-89 (PKA inhibitor, 20 μM) or U0126 (MEK inhibitor, 10 μM) for 1 hr before stimulation with either DMSO or 100 μM P-15 peptide for 5 hrs. Luciferase assay data are normalized to vehicle-preincubated, DMSO stimulated cells. Data are mean±SD from 3 independent experiments conducted in triplicates. *: P<0.05, **: P<0.01.
HEK cells were seeded in white opaque 96-well plates (30,000 cell/well) and were transfected with pCRE-Luc (100 ng/well) along with different doses of empty or GPR64-expressing plasmids. Cell were either left untreated or stimulated with different concentrations of P-15 peptide for 5 hrs at 37° C. Luminescence was measured in a FLEXStationIII plate reader (Molecular Devices).

GPR64 [4] = target: T1, GPR64 (Homo sapiens, UniProt Q8IZP9); assay: cAMP accumulation assay in HEK-CaSR cells transfected with GPR64; assay type: cell-based; design: The human GPR64 variant 1 (full length with 1017 amino acids); expressed in transfected cells; host or cells: HEK-CaSR cells (AD-293 clone stably expressing FLAG-tagged human CaSR), transient transfection with pcDNA3.1-GPR64; conditions: 100 μM P-15, 30 min, 1.25 or 3 mM Ca^2+
T1 sequence (Q8IZP9 38-1017): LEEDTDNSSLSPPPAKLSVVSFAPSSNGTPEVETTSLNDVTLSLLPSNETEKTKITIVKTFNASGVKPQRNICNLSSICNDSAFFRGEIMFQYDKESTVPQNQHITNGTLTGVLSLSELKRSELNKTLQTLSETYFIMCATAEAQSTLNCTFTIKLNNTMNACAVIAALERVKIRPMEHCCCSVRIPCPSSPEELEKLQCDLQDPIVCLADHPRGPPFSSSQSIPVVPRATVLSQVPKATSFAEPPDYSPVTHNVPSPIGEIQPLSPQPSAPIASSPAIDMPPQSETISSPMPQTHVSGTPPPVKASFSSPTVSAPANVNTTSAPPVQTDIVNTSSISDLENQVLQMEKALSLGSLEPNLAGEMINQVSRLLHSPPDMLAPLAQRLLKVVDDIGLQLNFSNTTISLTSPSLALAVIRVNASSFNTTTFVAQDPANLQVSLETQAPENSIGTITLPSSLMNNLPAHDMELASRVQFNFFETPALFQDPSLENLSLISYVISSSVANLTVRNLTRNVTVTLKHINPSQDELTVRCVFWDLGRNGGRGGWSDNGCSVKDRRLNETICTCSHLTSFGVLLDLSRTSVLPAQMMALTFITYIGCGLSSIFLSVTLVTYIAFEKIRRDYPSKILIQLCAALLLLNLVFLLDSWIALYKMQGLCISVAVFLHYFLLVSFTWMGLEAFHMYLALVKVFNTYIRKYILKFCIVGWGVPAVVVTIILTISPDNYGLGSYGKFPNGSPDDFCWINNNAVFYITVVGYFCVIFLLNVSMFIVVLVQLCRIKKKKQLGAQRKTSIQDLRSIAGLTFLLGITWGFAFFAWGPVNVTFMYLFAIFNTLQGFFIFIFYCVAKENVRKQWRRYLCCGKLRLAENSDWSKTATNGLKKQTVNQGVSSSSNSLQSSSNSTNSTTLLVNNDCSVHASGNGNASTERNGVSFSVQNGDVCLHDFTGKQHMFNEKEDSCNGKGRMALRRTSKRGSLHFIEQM

GPR64 [5] = target: T1, GPR64; assay: cAMP accumulation assay (ELISA) in HEK cells transfected with GPR64; assay type: cell-based; design: The human GPR64 variant 1 (full length with 1017 amino acids); expressed in transfected cells; host or cells: AD-293 (HEK) cells, transient transfection with pcDNA3.1-GPR64; conditions: 100 μM P-15, 30 min, 48 hrs post-transfection
Description: (§1) FIG. 2. (A) HEK cells were transfected with pCRE-Luc in combination with 200 ng of pcDNA3.1, GPR64 or GPR64ΔNTF plasmids and were stimulated with increasing concentrations of 15 amino acid-long human GPR64 peptide (P-15) for 5 hrs. Luciferase activity (CRE induction) was measured and data were normalized to the values of cells transfected with pcDNA3.1. Data are mean±SD from 3-4 independent experiments conducted in triplicates. (B) Forty eight hrs post-transfection with pcDNA3.1, GPR64 or GPR64ΔNTF plasmids, HEK cells were stimulated with DMSO (vehicle) or 100 μM P-15 peptide for 30 min and cAMP accumulation was measured in an ELISA assay at 405 nm. Data were corrected to the protein concentration in samples. Data are mean±SD from 3 independent experiments conducted in triplicates. *: P<0.05, ****: P<0.0001. (C) Freshly isolated human adenoma parathyroid cells were stimulated with increasing concentrations of Ca^2+ and P-15 or DMSO (vehicle) for 30 min and the concentration of secreted intact PTH was measured by ELISA. Data were normalized to the PTH secretion in vehicle-treated cells cultured in 0.5 mM Ca^2+. […] (D) Freshly isolated human adenoma parathyroid cells were stimulated with increasing concentrations of Ca^2+ and forskolin (FSK, 3 and 5 μM) or DMSO (vehicle) for 30 min and the concentration of secreted intact PTH was measured by ELISA. […]

GPR64ΔNTF [6] = target: T2, GPR64ΔNTF (Homo sapiens, UniProt Q8IZP9); assay: CRE reporter gene assay (pCRE-Luc) in HEK cells transfected with GPR64ΔNTF; assay type: cell-based; conditions: increasing concentrations of P-15, 5 hrs
T2 construct: The human GPR64 variant 1 (full length with 1017 amino acids); expressed in transfected cells; host or cells: AD-293 (HEK) cells, transient transfection with pcDNA3.1-GPR64ΔNTF
T2 sequence (Q8IZP9 607-1017 limits assumed, stated change not applied): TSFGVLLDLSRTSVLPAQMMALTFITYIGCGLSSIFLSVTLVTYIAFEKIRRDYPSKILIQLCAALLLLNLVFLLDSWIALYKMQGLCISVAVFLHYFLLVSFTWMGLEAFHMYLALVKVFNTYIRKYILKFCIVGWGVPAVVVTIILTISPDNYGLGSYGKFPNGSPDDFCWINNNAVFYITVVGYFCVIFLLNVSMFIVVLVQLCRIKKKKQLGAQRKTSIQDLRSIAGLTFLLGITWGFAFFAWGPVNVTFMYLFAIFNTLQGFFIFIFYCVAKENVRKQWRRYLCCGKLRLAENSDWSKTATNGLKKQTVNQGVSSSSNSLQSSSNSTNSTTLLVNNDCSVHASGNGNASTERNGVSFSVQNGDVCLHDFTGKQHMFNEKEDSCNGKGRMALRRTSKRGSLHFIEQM
Description: as §1, with “Data were corrected to the protein concentration in samples. Data are mean±SD from 3 independent experiments conducted in triplicates. *: P<0.05, ****: P<0.0001.” left out, “ELISA.” for “ELISA. Data were normalized to the PTH secretion in vehicle-treated cells cultured in 0.5 mM Ca^2+.”
(§2) HEK cells were seeded in white opaque 96-well plates (30,000 cell/well) and were transfected with pCRE-Luc (100 ng/well) along with different doses of empty or GPR64-expressing plasmids. […] Luminescence was measured in a FLEXStationIII plate reader (Molecular Devices).

GPR64ΔNTF [7] = target: T2, GPR64ΔNTF; assay: cAMP accumulation assay in HEK-CaSR cells transfected with GPR64ΔNTF; assay type: cell-based; conditions: concomitant 3 mM Ca^2+ and 100 μM P-15
GPR64 [8] = target: T1, GPR64; assay: CRE reporter gene assay (pCRE-Luc) in HEK cells transfected with GPR64; assay type: cell-based; design: The human GPR64 variant 1 (full length with 1017 amino acids); expressed in transfected cells; host or cells: AD-293 (HEK) cells, transient transfection with pcDNA3.1-GPR64; conditions: increasing concentrations of P-15, 5 hrs
Description: as §1, with “Data were corrected to the protein concentration in samples. Data are mean±SD from 3 independent experiments conducted in triplicates. *: P<0.05, ****: P<0.0001.” left out, “ELISA.” for “ELISA. Data were normalized to the PTH secretion in vehicle-treated cells cultured in 0.5 mM Ca^2+.”
as §2

For [Ca+2].[Cl-].[Cl-] [Calcium, Calcium chloride, reference compound], the cAMP level (HEK-CaSR cells) was “suppressed cAMP levels significantly”, the “calcium-mediated suppression of PTH secretion” value ([1]; tertiary hyperparathyroidism gland C, cells express very high levels of GPR64) was “unresponsive” and the PTH secretion ([2]; increasing concentrations of Ca^2+) was “suppressed PTH secretion in a dose-dependent manner”.
For O=S(=O)(NCCNC/C=C/c1ccc(Br)cc1)c1cccc2cnccc12 [H-89], the “effect on P-15-induced CRE induction” value [3] was “blunted the P-15-induced CRE induction”.
For N#CC(=C(/N)Sc1ccccc1N)/C(C#N)=C(\N)Sc1ccccc1N [U0126], the “effect on P-15-induced CRE induction” value [3] was “did not inhibit CRE induction”.
TSFGVLLDLSRTSVL [P-15, GPR64 agonist] was tested, and the cAMP production (GPR64 [4]) was “increased cAMP production irrespective of CaSR activation with 3 mM Ca^2+”, the cAMP production (GPR64 [5]) was “specifically activates GPR64 to produce cAMP” and the “CRE induction (luciferase activity)” value (GPR64ΔNTF [6]) was “concentration-dependent CRE induction”. For the same molecule, the “intracellular cAMP” value (GPR64ΔNTF [7]) was “restored the intracellular cAMP to the level of cells activated only with P-15 in normocalcemic conditions”, the PTH secretion ([1]; tertiary hyperparathyroidism gland A, calcium plus P-15 in vitro) was “higher PTH secretion” and the “CRE induction (luciferase activity)” value (GPR64 [8]; GPR64-transfected HEK cells) was “concentration-dependent CRE induction”. For the same molecule, the “CRE induction (luciferase activity)” value (GPR64 [8]; control cells (pcDNA3.1-transfected HEK)) was “absent” and the PTH secretion ([2]; P-15 with various concentrations of Ca^2+) was “elevated the PTH secretion”.
